Assay results as given in patent publication US12439944B2, “3-hydroxybutyrate compounds for use in reducing liver fat” (TDeltaS Limited, priority 2017, dated 2025).

Experiments:
[1] = tested on: liver fat; experiment: 1H Magnetic Resonance Spectroscopy (MRS) of liver, quantification of liver fat; type: in vivo, human; details: for liver fat (hepatic triglyceride relative to water): lean subjects; for liver triglyceride level: obese subjects
Experimental: Three obese subjects (BMI 33±3 kg/m^2) and seven lean subjects (BMI 23±2 kg/m^2), matched for age, gender, diabetes duration, treatment and HBA1c, underwent a ^1H-MRS scan for quantification of liver steatosis. All subjects were weighed and underwent a treatment regime for five days in which each subject consumed three drinks per day containing 0.393 g/kg body weight of (R)-3-hydroxybutyrate-R-1,3-butanediol monoester, made up to a final volume of 3.3 ml/kg body weight. […] Liver ^1H-MRS was performed on each of the subjects at the beginning and end of the 5 days to determine the change in liver fat. The ^1H-MRS measurements were carried out on a 3 T Siemens Tim Trio using a whole-body coil and 6-channel anterior plus 24-channel posterior phased-array coils for signal receiving. To obtain hepatic ^1H-MRS, an 8-ml voxel (2×2×2) was positioned in the liver, avoiding gross vascular, biliary structures and adipose tissue depots. Spectra, with and without water suppression, were obtained to calculate hepatic triglyceride content as a percentage relative to water (triglyceride/water×100). A calibration pulse sequence was implemented to evaluate the optimal water suppression pulse scaling factor. Individual coil signals were combined within Matlab using specifically written modules. The water-suppressed scans were constructively averaged, including frequency correction. Spectra were quantified using the Advanced Method of Accurate, Robust and Efficient Spectroscopic ([…]) fitting algorithm. Metabolite peaks (including lipid/triglycerides) were analyzed and prior knowledge was used for all peak locations by using soft constraints. All peaks were fitted using Lorentzian lineshapes.

[2] = Body weight change after five-day ketone ester drink regime; type: in vivo, human; details: 393 mg/kg body weight 3 times per day for 5 days
Experimental: Three obese subjects (BMI 33±3 kg/m^2) and seven lean subjects (BMI 23±2 kg/m^2), matched for age, gender, diabetes duration, treatment and HBA1c, underwent a ^1H-MRS scan for quantification of liver steatosis. All subjects were weighed and underwent a treatment regime for five days in which each subject consumed three drinks per day containing 0.393 g/kg body weight of (R)-3-hydroxybutyrate-R-1,3-butanediol monoester, made up to a final volume of 3.3 ml/kg body weight. […] The subjects were not asked to change their normal diet, but did keep diet diaries. Subjects lost 1.3 kg over the five-day period, irrespective of their starting body weight. The weight loss in 7 lean subjects (FIG. 1a) and 3 obese subjects (FIG. 1b) was the same, 1.3 kg, after drinking 393 mg/kg body weight (R)-3-hydroxybutyrate-(R)-1,3 butanediol monoester (ΔG®) 3 times per day for 5 days.

[3] = Blood (R)-3-hydroxybutyrate level after oral administration; type: in vivo; details: for circulating levels of (R)-3-hydroxybutyrate in the blood: general statement; for uptake in the gut: upon consumption of a drink
Experimental: At a dose of 1 g/kg of body weight of the subject, the blood (R)-3-hydroxybutyrate concentration is suitably at least 4 mM, preferably 5 mM. Upon oral administration of monoester of 1.5 g/kg of body weight of the subject, the blood (R)-3-hydroxybutyrate concentration is suitably at least 7 mM, preferably at least 8 mM, especially at least 9 mM. A dosing regime comprises multiple drinks consumed separately.
Blood levels of (R)-3-hydroxybutyrate may be determined by commercially available testing kits, for example, (R)-3-hydroxybutyrate can be measured on whole blood using a handheld monitor and reagent strips (Precision Xtra, Abbott Diabetes Care, UK).

[4] = tested on: liver fat; experiment: Reduction of liver fat, general statement; type: in vivo
[5] = end of the 5 days, 393 mg/kg 3 times per day

period of raised (R)-3-hydroxybutyrate concentrations ([3]; compared with ketone salts) | circulating levels of (R)-3-hydroxybutyrate in the blood [3] | Compound | change in liver fat ([1]; 7 lean subjects, 393 mg/kg 3 times per day for 5 days) | liver fat (hepatic triglyceride relative to water) ([1]; beginning of the 5 days) | liver fat (hepatic triglyceride relative to water) [1, 5] | liver triglyceride level ([1]; beginning of the 5 days) | liver triglyceride level [1, 5] | weight loss ([2]; 3 obese subjects) | weight loss ([2]; 7 lean subjects) | uptake in the gut [3] | effect on liver fat [4]
longer period than ketone salts | high circulating levels | C[C@@H](O)CCOC(=O)C[C@@H](C)O [(R)-3-hydroxybutyrate (R)-1,3-butanediol monoester] | no loss of liver fat | 2.3% | 2.5% | 17.5% | 14.1% | 1.3 kg | 1.3 kg | surprisingly high level of uptake in the gut | reduce liver fat
 | high circulating levels | (R)-3-hydroxybutyrate-glycerol partial ester |  |  |  |  |  |  |  | surprisingly high level of uptake in the gut | reduce liver fat
